Data from PMC7904559, “QSAR and molecular docking for the search of AOX inhibitors: a rational drug discovery approach” (Journal of Computer-Aided Molecular Design, 2020).
Where two headings read alike, the source gives them in different places.

Legend:
[1] = biological target: trypanosome alternative oxidase (TAO) (Trypanosoma brucei brucei, UniProt Q26710); experiment: biochemical
cytochrome bc1 complex = conditions: cited from earlier work
T. vivax = conditions: T. vivax-infected mouse; single intramuscular dose of 50 mg/kg or 6 mg/kg on 4 consecutive days; cited from earlier work
[2] = set-up: method as in PMID 30693533; conditions: cited from earlier work
[3] = biological target: alternative oxidase of Trypanosoma brucei (TAO); conditions: cited from earlier work; for pIC50 Exp.: training set, calculated as -log IC50
[4] = IC50, recombinant AOX expressed in E. coli membranes, mean ± SD of n = 3 isolations, 37 °C, pH 7.4, 1.25 mM NADH, 1 mM KCN
[5] = pIC50 Exp, external validation set, -log IC50 of values measured by respirometry
[6] = wild type TAO, Table 2, read-out: IC50
[7] = read-out: IC50 (50% inhibitory concentration), against TAO

Chain of trypanosome alternative oxidase (TAO) (Q26710 whole entry): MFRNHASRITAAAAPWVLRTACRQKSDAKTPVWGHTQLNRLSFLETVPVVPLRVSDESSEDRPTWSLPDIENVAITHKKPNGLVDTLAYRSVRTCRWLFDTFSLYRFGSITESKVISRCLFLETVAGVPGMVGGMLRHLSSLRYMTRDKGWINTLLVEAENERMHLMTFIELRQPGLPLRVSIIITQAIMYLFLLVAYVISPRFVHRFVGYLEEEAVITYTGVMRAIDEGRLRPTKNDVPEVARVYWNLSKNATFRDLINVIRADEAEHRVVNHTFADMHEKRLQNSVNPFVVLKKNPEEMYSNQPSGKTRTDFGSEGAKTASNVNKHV

| SMILES | IC50 [3, 7] [nM] | pIC50 Exp. [3] | further results |
| --- | --- | --- | --- |
| CC(/C=C/[C@@]1(C)[C@H](C)CCC(=O)[C@@H]1C)=C\Cc1c(O)c(Cl)c(C)c(C=O)c1O [Ascochlorin] |  |  | IC50 [1, 4]: ~7 nM; IC50 [1, 5]: 7.4 nM; inhibition of cytochrome bc1 complex (cytochrome bc1 complex): potent inhibitor |
| C/C(=C\Cc1c(O)c(Cl)c(C)c(C=O)c1O)CC/C=C(\C)[C@@H]1CC(=O)C(C)(C)O1 [Ascofuranone] |  |  | treatment outcome (T. vivax): successful treatment; blood clearance [2]: rapid; oral bioavailability [2]: low; inhibition of mammalian cytochrome bc1 complex (cytochrome bc1 complex; mammalian, concluded from survival of mice following AF treatment): not an effective inhibitor |
| CC(C)=CCC/C(C)=C/Cc1c(O)c(Cl)c(C)c(C=O)c1O [Colletochlorin B] |  |  | IC50 [3, 6]: 0.2 nM |
| CC(C)=CCc1c(O)c(Cl)c(C)c(C=O)c1O [Colletochlorin D] |  |  | IC50 [1, 5]: 33 nM |
| C/C(=C\Cc1c(O)c(Cl)c(C)c(C=O)c1O)CC/C=C(\C)COC(=O)C(C)(C)C [Compound 1] | 0.4 | 9.398 |  |
| C/C(=C\CC/C(C)=C/Cc1c(O)c(Cl)c(C)c(C=O)c1O)CO [Compound 2] | 1.2 | 8.921 |  |
| CC(=O)OC(C)/C(C)=C/CC/C(C)=C/Cc1c(O)c(Cl)c(C)c(C=O)c1O (stereo not shown) [Compound 3] | 1.4 | 8.854 |  |
| C/C=C/c1c(O)c(Cl)c(C)c(C=O)c1O [Compound 7a] |  | 7.000 |  |
| CCC/C=C/c1c(O)c(Cl)c(C)c(C=O)c1O [Compound 7b] | 3.8 | 8.420 |  |
| Cc1c(Cl)c(O)c(CCCCCCCCO)c(O)c1C=O [Compound 11] | 6 | 8.222 |  |
| Cc1c(Cl)c(O)c(CCCCCCCC(=O)O)c(O)c1C=O [Compound 12] | 40 | 7.398 |  |
| CC(=O)c1c(C)c(Cl)c(O)c(C/C=C(\C)CC/C=C(\C)C2CC(=O)C(C)(C)O2)c1O (stereo not shown) [Compound 14] | 2.5 | 8.602 |  |
| CC(=O)c1c(C)c(Cl)c(O)c(C/C=C(\C)CC/C=C(\C)COC(=O)C(C)(C)C)c1O [Compound 15] | 0.7 | 9.155 |  |
| CC(=O)c1c(C)c(Cl)c(O)c(C/C=C(\C)CCC=C(C)C)c1O [Compound 16] |  | 9.824 | IC50 [3, 6]: 0.15 nM |
| C/C(=C\Cc1c(O)c(Cl)c(C)c(/C=N\O)c1O)CC/C=C(\C)C1CC(=O)C(C)(C)O1 (stereo not shown) [Compound 17] | 28 | 7.553 |  |
| COC(=O)c1c(C)c(Cl)c(O)c(C/C=C(\C)CCC=C(C)C)c1O [Compound 18] | 45 | 7.347 |  |
| CCCCCCCCc1c(O)c(Cl)c(C)c([N+](=O)[O-])c1O [Compound 20] | 0.45 | 9.347 |  |
| C/C(=C\Cc1c(O)c(Cl)cc(C=O)c1O)CC/C=C(\C)C1CC(=O)C(C)(C)O1 (stereo not shown) [Compound 25] | 0.45 | 9.347 |  |
| CC(C)=CCC/C(C)=C/Cc1c(O)c(Cl)cc(C=O)c1O [Compound 26] | 0.23 | 9.638 |  |
| CC(C)=CCC/C(C)=C/Cc1c(O)cc(C)c(C=O)c1O [Compound 27] | 0.5 | 9.301 |  |
| CC(C)=CCC/C(C)=C/Cc1c(O)ccc(C=O)c1O [Compound 28] | 38 | 7.420 |  |
| COc1c(Cl)c(C)c(C=O)c(O)c1C/C=C(\C)CC/C=C(\C)C1CC(=O)C(C)(C)O1 (stereo not shown) [Compound 29] | 4 | 8.398 |  |
| CC(C)=CCC/C(C)=C/CC/C(C)=C/Cc1c(O)c2ccccc2oc1=O [Ferulenol] |  |  | IC50 [1, 5]: 53.1 nM |
| CCCCCCCCOC(=O)c1cc(O)c(O)c(O)c1 [Octyl gallate] |  |  | IC50 [1, 5]: 230 nM |
| CCCOC(=O)c1cc(O)c(O)c(O)c1 [Propyl gallate] |  |  | IC50 [3, 6]: 200 nM; IC50 [1, 4]: 1400 nM; IC50 ([1]; external validation set, -log IC50 of values measured by respirometry, read-out: pIC50 Exp (converted)): 1400 nM |
